{"source": "ChEMBL document CHEMBL3044789", "about": "“Comparing weed and crop seedling response to pre-emergence pendimethalin application in Corchorus olitorius and Abelmoschus esculentus” (Crop Prot, 2006)", "key": {"Abelmoschus esculentus [1]": {"system": "Abelmoschus esculentus", "experiment": "Phytotoxicity in Abelmoschus esculentus assessed as shoot length at 1.32 kg a.i/ha applied as solution after 7 weeks (reference value: 28.7 +/- 0.34 mm)", "type": "organism-based", "settings": "in vivo, other, 1176 h"}, "Asteraceae": {"system": "Asteraceae", "experiment": "Herbicidal activity against Aspilia africana in Corchorus olitorius plots assessed as minor weed growth at 0.66 kg a.i/ha after 2 weeks", "type": "functional"}, "Cyperus rotundus [2]": {"system": "Cyperus rotundus", "experiment": "Herbicidal activity against Cyperus rotundus in Abelmoschus esculentus plots assessed as weed cover at 0.66 kg a.i/ha after 7 weeks (reference value: 14.7 +/- 0.46 %)", "type": "functional"}, "Cyperus rotundus [3]": {"system": "Cyperus rotundus", "experiment": "Herbicidal activity against Cyperus rotundus in Abelmoschus esculentus plots assessed as weed recovery at 0.66 kg a.i/ha after 2 weeks (reference value: 60.1 +/- 0.46 %)", "type": "functional"}, "Commelina diffusa": {"system": "Commelina diffusa", "experiment": "Herbicidal activity against Commelina diffusa in Abelmoschus esculentus plots assessed as weed cover at 0.66 kg a.i/ha after 7 weeks (reference value: 14.7 +/- 0.46 %)", "type": "functional"}, "Abelmoschus esculentus [4]": {"system": "Abelmoschus esculentus", "experiment": "Phytotoxicity in Abelmoschus esculentus assessed as shoot length at 0.33 kg a.i/ha treated to soil after 7 weeks (reference value: 8.5 +/- 0.34 mm)", "type": "organism-based", "settings": "in vivo, other, 1176 h"}, "Euphorbia heterophylla [5]": {"system": "Euphorbia heterophylla", "experiment": "Herbicidal activity against Euphorbia heterophylla in Abelmoschus esculentus plots assessed as weed cover at 0.33 kg a.i/ha after 4 weeks (reference value: 22.6 +/- 0.49 %)", "type": "functional"}, "Euphorbia heterophylla [6]": {"system": "Euphorbia heterophylla", "experiment": "Herbicidal activity against Euphorbia heterophylla in Corchorus olitorius plots assessed as weed cover at 0.99 kg a.i/ha after 7 weeks (reference value: 1.7 +/- 0.56 %)", "type": "functional"}, "Euphorbia heterophylla [7]": {"system": "Euphorbia heterophylla", "experiment": "Herbicidal activity against Euphorbia heterophylla in Abelmoschus esculentus plots assessed as major weed growth at 0.99 kg a.i/ha after 2 weeks", "type": "functional"}, "Calopogonium mucunoides [8]": {"system": "Calopogonium mucunoides", "experiment": "Herbicidal activity against Calopogonium mucunoides in Abelmoschus esculentus plots assessed as weed recovery at 1.32 kg a.i/ha after 2 weeks (reference value: 60.1 +/- 0.46 %)", "type": "functional"}, "Chromolaena odorata [9]": {"system": "Chromolaena odorata", "experiment": "Herbicidal activity against Chromolaena odorata in Corchorus olitorius plots assessed as weed cover at 0.99 kg a.i/ha after 7 weeks (reference value: 1.7 +/- 0.56 %)", "type": "functional"}, "Abelmoschus esculentus [10]": {"system": "Abelmoschus esculentus", "experiment": "Phytotoxicity in Abelmoschus esculentus assessed as seedling emergence at 0.66 kg a.i/ha treated to soil after 7 weeks (reference value: 95 +/- 0.05 %)", "type": "organism-based", "settings": "in vivo, other, 1176 h"}, "Euphorbia heterophylla [11]": {"system": "Euphorbia heterophylla", "experiment": "Herbicidal activity against Euphorbia heterophylla in Corchorus olitorius plots assessed as weed cover at 0.66 kg a.i/ha after 4 weeks (reference value: 20.1+/- 0.57 %)", "type": "functional"}, "Ageratum conyzoides [12]": {"system": "Ageratum conyzoides", "experiment": "Herbicidal activity against Ageratum conyzoides in Corchorus olitorius plots assessed as weed cover at 1.32 kg a.i/ha after 2 weeks (reference value: 81.7 +/- 0.43 %)", "type": "functional"}, "Chromolaena odorata [13]": {"system": "Chromolaena odorata", "experiment": "Herbicidal activity against Chromolaena odorata in Corchorus olitorius plots assessed as weed cover at 1.32 kg a.i/ha after 2 weeks (reference value: 81.7 +/- 0.43 %)", "type": "functional"}, "Euphorbia heterophylla [14]": {"system": "Euphorbia heterophylla", "experiment": "Herbicidal activity against Euphorbia heterophylla in Corchorus olitorius plots assessed as major weed growth at 1.32 kg a.i/ha after 2 weeks", "type": "functional"}, "Calopogonium mucunoides [15]": {"system": "Calopogonium mucunoides", "experiment": "Herbicidal activity against Calopogonium mucunoides in Corchorus olitorius plots assessed as weed cover at 0.66 kg a.i/ha after 2 weeks (reference value: 81.7 +/- 0.43 %)", "type": "functional"}, "Abelmoschus esculentus [16]": {"system": "Abelmoschus esculentus", "experiment": "Phytotoxicity in Abelmoschus esculentus assessed as root length at 0.33 kg a.i/ha applied as solution after 7 weeks (reference value: 23 +/- 0.34 mm)", "type": "organism-based", "settings": "in vivo, other, 1176 h"}, "Synedrella nodiflora [17]": {"system": "Synedrella nodiflora", "experiment": "Herbicidal activity against Synedrella nodiflora in Corchorus olitorius plots assessed as weed cover at 0.66 kg a.i/ha after 7 weeks (reference value: 1.7 +/- 0.56 %)", "type": "functional"}, "Abelmoschus esculentus [18]": {"system": "Abelmoschus esculentus", "experiment": "Phytotoxicity in Abelmoschus esculentus assessed as seedling injury at 0.66 kg a.i/ha applied as solution after 7 weeks relative to control", "type": "organism-based", "settings": "in vivo, other, 1176 h"}, "Synedrella nodiflora [19]": {"system": "Synedrella nodiflora", "experiment": "Herbicidal activity against Synedrella nodiflora in Abelmoschus esculentus plots assessed as major weed growth at 0.33 kg a.i/ha after 2 weeks", "type": "functional"}, "Calopogonium mucunoides [20]": {"system": "Calopogonium mucunoides", "experiment": "Herbicidal activity against Calopogonium mucunoides in Corchorus olitorius plots assessed as major weed growth at 0.33 kg a.i/ha after 2 weeks", "type": "functional"}, "Synedrella nodiflora [21]": {"system": "Synedrella nodiflora", "experiment": "Herbicidal activity against Synedrella nodiflora in Corchorus olitorius plots assessed as weed cover at 0.99 kg a.i/ha after 4 weeks (reference value: 20.1+/- 0.57 %)", "type": "functional"}, "Corchorus olitorius": {"system": "Corchorus olitorius", "experiment": "Phytotoxicity in Corchorus olitorius assessed as root length at 0.99 kg a.i/ha treated to soil after 7 weeks (reference value: 16.9 +/- 0.09 mm)", "type": "organism-based", "settings": "in vivo, other, 1176 h"}, "Euphorbia heterophylla [22]": {"system": "Euphorbia heterophylla", "experiment": "Herbicidal activity against Euphorbia heterophylla in Corchorus olitorius plots assessed as weed recovery at 0.99 kg a.i/ha after 2 weeks (reference value: 78.3 +/- 0.74 %)", "type": "functional"}, "Ageratum conyzoides [23]": {"system": "Ageratum conyzoides", "experiment": "Herbicidal activity against Ageratum conyzoides in Abelmoschus esculentus plots assessed as minor weed growth at 1.32 kg a.i/ha after 2 weeks", "type": "functional"}, "Synedrella nodiflora [24]": {"system": "Synedrella nodiflora", "experiment": "Herbicidal activity against Synedrella nodiflora in Abelmoschus esculentus plots assessed as weed cover at 1.32 kg a.i/ha after 7 weeks (reference value: 14.7 +/- 0.46 %)", "type": "functional"}, "Abelmoschus esculentus [25]": {"system": "Abelmoschus esculentus", "experiment": "Phytotoxicity in Abelmoschus esculentus assessed as crop seedling injury at 0.33 kg a.i/ha after 2 weeks relative to untreated control", "type": "organism-based", "settings": "in vivo, 336 h"}, "Synedrella nodiflora [26]": {"system": "Synedrella nodiflora", "experiment": "Herbicidal activity against Synedrella nodiflora in Corchorus olitorius plots assessed as weed cover at 0.33 kg a.i/ha after 7 weeks (reference value: 1.7 +/- 0.56 %)", "type": "functional"}, "Synedrella nodiflora [27]": {"system": "Synedrella nodiflora", "experiment": "Herbicidal activity against Synedrella nodiflora in Abelmoschus esculentus plots assessed as weed cover at 0.99 kg a.i/ha after 4 weeks (reference value: 22.6 +/- 0.49 %)", "type": "functional"}, "Cyperus rotundus [28]": {"system": "Cyperus rotundus", "experiment": "Herbicidal activity against Cyperus rotundus in Corchorus olitorius plots assessed as weed recovery at 0.66 kg a.i/ha after 2 weeks (reference value: 78.3 +/- 0.74 %)", "type": "functional"}, "Synedrella nodiflora [29]": {"system": "Synedrella nodiflora", "experiment": "Herbicidal activity against Synedrella nodiflora in Corchorus olitorius plots assessed as weed cover at 0.33 kg a.i/ha after 4 weeks (reference value: 20.1+/- 0.57 %)", "type": "functional"}, "Chromolaena odorata [30]": {"system": "Chromolaena odorata", "experiment": "Herbicidal activity against Chromolaena odorata in Corchorus olitorius plots assessed as weed cover at 1.32 kg a.i/ha after 4 weeks (reference value: 20.1+/- 0.57 %)", "type": "functional"}, "Calopogonium mucunoides [31]": {"system": "Calopogonium mucunoides", "experiment": "Herbicidal activity against Calopogonium mucunoides in Abelmoschus esculentus plots assessed as weed cover at 0.66 kg a.i/ha after 7 weeks (reference value: 14.7 +/- 0.46 %)", "type": "functional"}, "Synedrella nodiflora [32]": {"system": "Synedrella nodiflora", "experiment": "Herbicidal activity against Synedrella nodiflora in Corchorus olitorius plots assessed as weed cover at 0.99 kg a.i/ha after 7 weeks (reference value: 1.7 +/- 0.56 %)", "type": "functional"}, "Calopogonium mucunoides [33]": {"system": "Calopogonium mucunoides", "experiment": "Herbicidal activity against Calopogonium mucunoides in Corchorus olitorius plots assessed as weed cover at 0.33 kg a.i/ha after 4 weeks (reference value: 20.1+/- 0.57 %)", "type": "functional"}, "Euphorbia heterophylla [34]": {"system": "Euphorbia heterophylla", "experiment": "Herbicidal activity against Euphorbia heterophylla in Abelmoschus esculentus plots assessed as weed cover at 0.99 kg a.i/ha after 7 weeks (reference value: 14.7 +/- 0.46 %)", "type": "functional"}}, "data": [{"smiles": "CCC(CC)Nc1c([N+](=O)[O-])cc(C)c(C)c1[N+](=O)[O-]", "note": "[PENDIMETHALIN]", "values": [{"measurement": "Activity", "setting": "Abelmoschus esculentus [1]", "value": 14.6, "unit": "mm"}, {"measurement": "Activity", "setting": "Asteraceae", "value": "1 /m2"}, {"measurement": "Activity", "setting": "Cyperus rotundus [2]", "value": 90, "unit": "%"}, {"measurement": "Activity", "setting": "Cyperus rotundus [3]", "value": 47.9, "unit": "%"}, {"measurement": "Activity", "setting": "Commelina diffusa", "value": 90, "unit": "%"}, {"measurement": "Activity", "setting": "Abelmoschus esculentus [4]", "value": 8.6, "unit": "mm"}, {"measurement": "Activity", "setting": "Euphorbia heterophylla [5]", "value": 53.8, "unit": "%"}, {"measurement": "Activity", "setting": "Euphorbia heterophylla [6]", "value": 95, "unit": "%"}, {"measurement": "Activity", "setting": "Euphorbia heterophylla [7]", "value": "31 /m2"}, {"measurement": "Activity", "setting": "Calopogonium mucunoides [8]", "value": 33.2, "unit": "%"}, {"measurement": "Activity", "setting": "Chromolaena odorata [9]", "value": 95, "unit": "%"}, {"measurement": "Activity", "setting": "Abelmoschus esculentus [10]", "value": 82, "unit": "%"}, {"measurement": "Activity", "setting": "Euphorbia heterophylla [11]", "value": 63.3, "unit": "%"}, {"measurement": "Activity", "setting": "Ageratum conyzoides [12]", "value": 41.7, "unit": "%"}, {"measurement": "Activity", "setting": "Chromolaena odorata [13]", "value": 41.7, "unit": "%"}, {"measurement": "Activity", "setting": "Euphorbia heterophylla [14]", "value": "31 /m2"}, {"measurement": "Activity", "setting": "Calopogonium mucunoides [15]", "value": 51.7, "unit": "%"}, {"measurement": "Activity", "setting": "Abelmoschus esculentus [16]", "value": 11.7, "unit": "mm"}, {"measurement": "Activity", "setting": "Synedrella nodiflora [17]", "value": 100, "unit": "%"}, {"measurement": "Activity", "setting": "Abelmoschus esculentus [18]", "value": 39.2, "unit": "%"}, {"measurement": "Activity", "setting": "Synedrella nodiflora [19]", "value": "31 /m2"}, {"measurement": "Activity", "setting": "Calopogonium mucunoides [20]", "value": "31 /m2"}, {"measurement": "Activity", "setting": "Synedrella nodiflora [21]", "value": 48.3, "unit": "%"}, {"measurement": "Activity", "setting": "Corchorus olitorius", "value": 16.4, "unit": "mm"}, {"measurement": "Activity", "setting": "Euphorbia heterophylla [22]", "value": 21.7, "unit": "%"}, {"measurement": "Activity", "setting": "Ageratum conyzoides [23]", "value": "1 /m2"}, {"measurement": "Activity", "setting": "Synedrella nodiflora [24]", "value": 82.4, "unit": "%"}, {"measurement": "Activity", "setting": "Abelmoschus esculentus [25]", "value": 39.9, "unit": "%"}, {"measurement": "Activity", "setting": "Synedrella nodiflora [26]", "value": 100, "unit": "%"}, {"measurement": "Activity", "setting": "Synedrella nodiflora [27]", "value": 39.2, "unit": "%"}, {"measurement": "Activity", "setting": "Cyperus rotundus [28]", "value": 33.3, "unit": "%"}, {"measurement": "Activity", "setting": "Synedrella nodiflora [29]", "value": 73.3, "unit": "%"}, {"measurement": "Activity", "setting": "Chromolaena odorata [30]", "value": 33.3, "unit": "%"}, {"measurement": "Activity", "setting": "Calopogonium mucunoides [31]", "value": 90, "unit": "%"}, {"measurement": "Activity", "setting": "Synedrella nodiflora [32]", "value": 95, "unit": "%"}, {"measurement": "Activity", "setting": "Calopogonium mucunoides [33]", "value": 73.3, "unit": "%"}, {"measurement": "Activity", "setting": "Euphorbia heterophylla [34]", "value": 83.9, "unit": "%"}]}]}
